Test results reported in patent US20260102387A1, “IMMUNOSUPPRESSIVE COMPOUNDS” (UNIVERSITÄT BASEL, priority 2022, published 2026).
“Also recorded” adds a separate entry of the source.

How the values were obtained:
[1] = tested on: early cytomegalovirus promoter; test: Screening assay control: CMV promoter driven RFP in RBL cells (microplate reader); type: cell-based; details: 5 μg/ml, 48 h, microplate reader, DMSO = 100, read-out: RFP values (%)
Protocol: As an unrelated promoter, the early cytomegaloviral promoter element was cloned into a promoterless Red Fluorescence Protein (RFP) expression plasmid. Rat Basophil Leukemia (RBL) cells were transfected with the plasmid, stable RFP expressing cells enriched, incubated with various compounds and were assessed for red fluorescence values. Analyzing the inhibition of an unrelated promoter (in this case, early cytomegalovirus promoter) that drove Red Fluorescence Protein (RFP) expression assessed non-specificity of the compound under analysis.
(§1) The plasmids were independently transfected into immune cells (Rat basophil Leukemia, RBL cells) to generate green and red fluorescent RBL cells that were subsequently enriched by means of flow cytometry. These cells were then mixed in equal ratio (1:1) and incubated in a 96 well plate at 100,000 cells/well in a volume of 200 μl of phenol red free RPMI supplemented with 8% fetal calf serum, L-glutamate and antibiotics (penicillin, streptomycin) and various compounds (3 and 5 μg/ml concentrations) from available chemical libraries. At defined time points (8 h, 24 h and 48 h), the GFP and RFP fluorescence was measured using a 96 well microplate reader (Synergy, BioTek Instruments). […] Selected compounds show different levels of modulation of coronin 1 promoter driven GFP and CMV promoter driven RFP fluorescence. GFP and RFP fluorescence were analyzed with a microplate reader upon incubation with the top coronin 1 promoter inhibiting compounds. Shown are percentage of GFP reduction (left column) and percentage of RFP reduction (right column) for the compounds at 5 μg/ml concentration at 48 h. Cycloheximide (CHX) serves as positive control whereas media and DMSO serve as negative controls. […] Cells were imaged using a fluorescence microscope to validate fluorescence inhibition (FIG. 3A) and as well assess morphology and viability (in addition to GFP down regulation confirmation). In addition, quantitative Polymerase Chain Reaction (qPCR) for coronin 1 mRNA transcripts reveal reduction with compound 11 (FIG. 3B). The primers used for the qPCR on RBL cells are listed below as follows;

[2] = tested on: CMV promoter; test: EC50 analysis for CMV promoter driven RFP inhibition (non-specific activity) by flow cytometry in RBL cells; type: cell-based, cytomegalovirus; details: 48-65 h, read-out: EC50 RFP alteration
Protocol: RBL cells expressing GFP under coronin 1 promoter and optionally with RBL cells expressing RFP under CMV promoter were mixed in equal numbers and incubated with the compounds at indicated concentrations for 48-65 h and analyzed by flow cytometry for alteration in coronin 1 promoter (GFP fluorescence), CMV promoter (RFP fluorescence) values. In addition, the cells were labelled with live-dead marker for assessing cell viability status by flow cytometry. Cycloheximide (CHX) serves as positive control and DMSO serves as negative controls. Effective Concentration (EC50) values for coronin 1 promoter inhibition via GFP fluorescence analysis, non-specific promoter inhibition via CMV promoter driven-RFP fluorescence analysis and cell viability via live/dead staining as a measure for toxicity in flow cytometry for compounds (10-22 and 50a-65a) are shown in Table 6 and Table 7. Based on the EC50 analysis of the inhibition of coronin 1 promoter driven GFP fluorescence the (4S,7R)-configurated eutomers were identified (Structures FIG. 9A-C). This is exemplified for compounds containing two stereocenters by eutomers 11c and 13a. […] Subsequent EC50 evaluations (Table 7) were performed with compound 13a as standard for relative potency normalized to a value of 1.00 (relative potency calculated as [EC50 GFP inhibition 13a]/[EC50 GFP inhibition compound of interest]).

[3] = tested on: coronin 1 mRNA; test: Quantitative PCR of coronin 1 mRNA in RBL cells; type: cell-based, Rat; details: 3.5 μg/ml, 7 days
Protocol: as §1, with “compounds.” for “compounds. Shown are percentage of GFP reduction (left column) and percentage of RFP reduction (right column) for the compounds at 5 μg/ml concentration at 48 h. Cycloheximide (CHX) serves as positive control whereas media and DMSO serve as negative controls.”, “The primers used for the qPCR on RBL cells are listed below as follows;” left out

[4] = tested on: RBL cells; test: In vitro toxicity, MTT assay; type: cell-based, Rat
Protocol: MTT assay was performed with 3-(4,5-dimethylthiazol-2-yl)-2,5-diphenyltetra-zolium bromide (MTT, Cayman chemicals) using the manufacturers protocol. In brief, RBL cells pretreated with coronin 1 expression inhibitor or vehicle controls were reseeded and cultured in a 96-well plate at a concentration of […] cells/ml of culture media, 10 μL of MTT was added and incubated for 4 h at 37° C. At the end, culture supernatant was removed and the formazan crystals were dissolved with 100 μl of crystal dissolving solution and the absorbance measured at 570 nm using a plate reader (Synergy) (FIG. 5B).

[5] = In vivo toxicity: hematological parameters (ADVIA) and body weight; details: 150 mg/kg/body weight, BD, IP, six-day administration
Protocol: Coronin 1 expression inhibitor (compound 11) was initially dissolved in DMSO at 100 mg/ml concentration. In parallel, a 50:50 solution of miglyol 812 and kolliphor EL (M+K) was prepared. Coronin 1 expression inhibitor: M+K was mixed at a ratio of 30:70 and vortexed for 5 minutes to make a homogenous suspension such that a final concentration of 30 mg/ml was obtained. 100 μl/mouse was subsequently administered either intraperitoneally or subcutaneously using an insulin syringe. The mice used for the study were separated into age and sex matched cohorts, weighed prior to start of the study and regularly monitored for body weight, behavioural changes, fur changes, faecal consistency and urine colour. […]

[6] = tested on: coronin 1; test: Coronin 1 Western blotting in human PBMCs; type: cell-based; details: 10 μg/ml, 5 days
Protocol: buffer with 0.2% SDS containing protease and phosphatase inhibitors (Roche) at 4° C., followed by protein determination (BCA, Pierce) and SDS-PAGE, transferred onto nitrocellulose and probed using antibodies against the indicated proteins (actin and coronin 1) followed by HRP-labeled secondary antibodies and developed using an enhanced chemi-luminescence imager (Fuji) (FIG. 8A).
Heparinized or EDTA treated blood or buffy coat from healthy volunteers were enriched for monocytes using the standard Histopaque 1.077 gradient centrifugation methodology. Post enrichment, the monocyte fraction was washed extensively with plain RPMI and subsequently counted and seeded in 96 well plate at a density of 0.2 million cells/well in a volume of 200 μl RPMI-1640 (Sigma) containing 1× penicillin and streptomycin (Gibco), 2 mM L-glutamine (Gibco), 10% heat inactivated FCS (PAA) and heparin 50 units/ml along with the vehicle (DMSO) or coronin 1 inhibitor at indicated concentrations. Cells were incubated in a 37° C. humidified incubator with a 5% CO2 for five days with the expression inhibitor and vehicle replenished in between at 48 hours post seeding by replacing 50% of the media. […]

[7] = tested on: human PBMCs (CD4 and CD8 T cells); test: Proinflammatory cytokine production in human PBMCs after CD3/CD28 stimulation, flow cytometry; type: cell-based; details: 10 μg/ml, 4.5 days, CD3 and CD28 antibodies
Protocol: Heparinized or EDTA treated blood or buffy coat from healthy volunteers were enriched for monocytes using the standard Histopaque 1.077 gradient centrifugation methodology. Post enrichment, the monocyte fraction was washed extensively with plain RPMI and subsequently counted and seeded in 96 well plate at a density of 0.2 million cells/well in a volume of 200 μl RPMI-1640 (Sigma) containing 1× penicillin and streptomycin (Gibco), 2 mM L-glutamine (Gibco), 10% heat inactivated FCS (PAA) and heparin 50 units/ml along with the vehicle (DMSO) or coronin 1 inhibitor at indicated concentrations. Cells were incubated in a 37° C. humidified incubator with a 5% CO2 for five days with the expression inhibitor and vehicle replenished in between at 48 hours post seeding by replacing 50% of the media. Subsequently, the cells were assessed for coronin 1 down regulation by Western blotting (FIG. 8A) and in parallel stimulated with anti-CD3 (2 μg/ml) and anti-CD28 (10 μg/ml) antibodies overnight and treated with brefeldin A for a duration of 4 h and subjected to surface staining (for CD3, CD4, CD8 and CD19) along with live-dead marker and fixed with 4% formaldehyde, permeabilized with 0.1% saponin and subjected to intracellular staining for interleukin-2 (FIG. 8B,C).

SMILES: COC(=O)C1=C(C)NC2=C(C(=O)CC(c3ccccc3OC)C2)C1c1cccc(O)c1 (stereo not shown) [Comp. 11, methyl-4-(3-hydroxyphenyl)-7-(2-methoxyphenyl)-2-methyl-5-oxo-1,4,5,6,7,8-hexahydro-3-quinolinecarboxylate]
- activity at 5 µg/mL [1]: 111%
- EC50 [2]: > 9 µM
- coronin 1 mRNA transcripts (qPCR) [3]: reduction in coronin 1 transcripts
- in vitro toxicity by MTT assay [4]: minimal toxicity
- in vivo toxicity: hematological parameters (RBC, WBC, platelet counts, hemoglobin), body weight [5]: did not reveal any potential toxicity; also recorded: good safety and tolerability
- coronin 1 depletion in human PBMCs (Western blotting) [6]: coronin 1 depletion
- production of interleukin-2 (IL-2) in CD4 and CD8 T cells post T cell receptor stimulation [7]: attenuates immune responses
